Data taken from patent US9815878B2, “Use of PEDF-derived polypeptides for preventing and/or ameliorating skin aging” (MacKay Memorial Hospital, priority 2012, dated 2017).

Legend:
[1] = system: type I collagen (COL1A1); assay: Type I collagen (COL1A1) level in mouse skin by immunoblot; type: in vivo, C57BL/6 mice; conditions: ointment plus microneedle (MN), twice a week for two weeks, day 14; normalized with vehicle/CT
Experimental: (§1) Skin tissues were homogenized in ice-cold lysis buffer containing 20 mM HEPES (pH 7.4), 150 mM NaCl, 1% SDS, 1 mM ethylenediamine tetraacetic acid (EDTA), 5 mM phenylmethanesulfonyl fluoride (PMSF), and 1 mM dithiothreitol (DTT), 1% Triton X-100, with freshly added protease inhibitor cocktail (Roche, Indianapolis, Ind.). Homogenates were then centrifuged at 12,000 g for 30 minutes at 4° C., and supernatants were then collected and stored at −70° C. Protein contents in lysates were determined using the Bradford assay. Whole cell lysates were prepared using the above lysis buffer. Aliquots of the lysates were then resolved on a SDS-PAGE and then electrotransferred to polyvinylidene difluoride (PVDF) membranes (Millipore, Bedford, Mass., USA) and processed for immunoblot analysis.
Antibodies used in the immunoblot study included anti-type I collagen 1A1 antibody (1:1000 dilution), anti-MMP-1 antibody (1:500 dilution) and anti-β-actin antibody (1:10000 dilution). Proteins of interest were detected using the appropriate IgG-HRP secondary antibody and ECL reagent (Amersham, Arlington Heights, Ill., USA). X-ray films were scanned on a Model GS-700 Imaging Densitometer (Bio-Rad Laboratories, Hercules, Calif.) and analyzed using Labworks 4.0 software. For quantification, blots from at least three independent experiments were used. […]

[2] = system: dermal fibroblasts; assay: Vimentin-positive fibroblast count in dermis of treated mice; type: in vivo, C57BL/6 mice; conditions: ointment plus microneedle (MN), specimens from Example 2
Experimental: Collagen is the major matrix component of the dermis and forms a tough fiber framework to provide the elastic property of the skin. This working example investigated whether the present PEDF peptides increase dermal collage content. Mice depilated as described in Example 1 were randomly assigned to several experimental groups and treated as follows. For each mouse, one side of the dorsal midline (about 2 cm^2) received 50 μl of ointment (the 29-mer, 20-mer, or DMSO-containing ointment) and a subsequent microneedle treatment; while the other side of the dorsal midline (about 2 cm^2) received 50 μl of the same ointment without the microneedle treatment. The treatment was given twice a week for two weeks, and the skin was left uncovered and harvested 14 days after the first treatment. Skin specimens were stained with Masson's trichrome stain (blue) for dermal collagen; representative images are provided in FIG. 2. The stained collagen area in the skin was quantified as taught above in the “Materials and Methods” section, and the results were normalized with the area of Vehicle/MN. […]
Specimens from Example 2, above, were also stained for the fibroblast marker, vimentin, and the vimentin-positive cells were counted under microscope.

[3] = system: MMP-1; assay: UVB-induced MMP-1 protein expression in WS-1 cells, western blotting; type: cell-based, human; conditions: for MMP-1 Expression Level (%): Vehicle/UVB set to 100%; for MMP-1 protein level relative to vehicle/UVB group: pre-incubation with peptide
Experimental: Human skin fibroblast WS-1 cell line was obtained from Food Industry Research and Development Institute (Hsin-Chu, Taiwan). The WS-1 cells were maintained in a 37° C., 5% CO2 humidified incubator as monolayers in culture flasks. They were grown in 10% FBS-DMEM supplemented with 2 mM L-glutamine, 0.1 mM non-essential amino acids, 1% penicillin/streptomycin. For passage, near-confluent cells were sub-cultured by 0.25% trypsin/EDTA.
as §1
Antibodies used in the immunoblot study included anti-type I collagen 1A1 antibody (1:1000 dilution), anti-MMP-1 antibody (1:500 dilution) and anti-β-actin antibody (1:10000 dilution). Proteins of interest were detected using the appropriate IgG-HRP secondary antibody and ECL reagent (Amersham, Arlington Heights, Ill., USA). X-ray films were scanned on a Model GS-700 Imaging Densitometer (Bio-Rad Laboratories, Hercules, Calif.) and analyzed using Labworks 4.0 software. For quantification, blots from at least three independent experiments were used.
WS-1 were seeded on a six-well plate at a density of 1×10^5 cells per well and grown in the 10% FBS-DMEM growth medium for 24 hours and then incubated with 1% FBS-DMEM supplemented with or without 100 nM PEDF peptide for further 24 hours. The cells were washed twice with phosphate buffered saline (PBS) and exposed to UVB radiation covered with PBS. The UVB treatment was conducted in a cell culture hood by using a UVB lamp (model XL-1000B, Spectrolinker™ Inc.) at a final dose of 15 mJ/cm^2 for about 100 seconds. Cell viability was assayed using trapan blue exclusion assay (>95%). After UVB irradiation, PBS was replaced with 1% FBS-DMEM with or without PEDF peptide for further 48 hours and then protein extracts were assayed by western blotting for the expression of MMP-1 protein. Cells that were not subjected to UVB irradiation were used as control (normal). The expression level of MMP-1 was normalized with the expression level in the Vehicle/UVB group (set to 100%), and quantitative results are summarized in Table 6.

[4] = system: dermal collagen; assay: Collagen content of UVB-damaged mouse skin, Masson's trichrome staining; type: in vivo, nude mice; conditions: 8-week UVB, then transdermal delivery for 2 weeks
Experimental: General histology was performed using hematoxylin and eosin (H&E) dye. Deparaffinized skin tissue sections were stained using Masson's Trichrome (Sigma-Aldrich, St. Louis, Mo.) according to the manufacturer's instructions; sections was examined and photographed by a Nikon Eclipse 80i light microscope (original magnification, ×400). For semi-quantitative analysis of collagen area, 10 fields from each slide were randomly selected under the light microscope, and the blue-stained area per entire area of the cross section (mm^2/mm^2) was measured using the Image-Pro Plus 4.5.1 system (Media Cybernetics).
Six-week-old female nude mice (BALB/cAnN.Cg-Foxn1nu/CrlNarl) were irradiated with ultraviolet B (UVB) on the back 5 times a week for an eight-week period using a bank of five UVB lamps (model XL-1000B, Spectrolinker™ apparatus; emission peak: 312 nm), placed about 20 cm above the backs of the animals. During the UVB exposure, the mice were allowed to move freely within the cage. […] The level of BrdU- and vimentin-double positive cells was expressed as the percentage of BrdU- and vimentin-double positive cells per total vimentin-positive cells (the BrdU/Vimentin Labeling Index). […]

[5] = 100 nM peptide 24 h before and 48 h after UVB 15 mJ/cm^2

Substance	COL1A1 Level (fold) [1]	Vimentin+ Cells per mm^2 [2]	MMP-1 Expression Level (%) [3, 5]	MMP-1 Expression Level (%) ([3]; 100 nM peptide, no UVB irradiation)	MMP-1 protein level relative to vehicle/UVB group [3]	collagen level in the dermis versus UVB/vehicle group (Masson's trichrome, FIG. 5) [4]
Ac-SLGAEQRTESIIHRALYYDLISSPDIHGT-NH2 [29-mer]	1.7 ± 0.24 fold	1688 ± 197 Cells per mm^2	42 ± 3.3 %	5 ± 2.3%	about half	significantly enhanced
SLGAEQRTESIIHRALYYDL [20-mer, synthetic peptide corresponding to residues 93-112 of human PEDF]	1.8 ± 0.20 fold	1745 ± 143 Cells per mm^2	50 ± 5.1 %		about half	significantly enhanced
